The values that follow come from US20250051327A1, “MALT-1 MODULATORS” (EXSCIENTIA AI LIMITED, priority 2020, published 2025).

In general, IC50 refers to the midpoint of a concentration-inhibition curve.

For assay [1], the target named is Recombinant human MALT-1 (amino acids 340-824) (Homo sapiens (Human), UniProt Q9UDY8). Put plainly: MALT-1 inhibition assay (fluorogenic substrate Ac-LRSR-Rh110-DP). It is filed as biochemical. The settings on record: recombinant human MALT-1, substrate Ac-LRSR-Rh110-DP. Put shortly:
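MALT-1 at 3 nM final was reacted with 10 μM Ac-LRSR-Rh110-DP, with substrate addition starting the reaction. Incubation ran 60 minutes at 25° C in the dark. Percent inhibition from fluorescence across doses was fitted to a 4-parameter logistic to give IC50.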

For assay [2], the system named is IL-2 secretion by human effector memory T cells (TEM). In words: Effector memory T cells IL-2 release assay. It is filed as cell-based. The note with it: T-cell; human CD4+ effector memory T cells, CD3/CD28 bead stimulation, 24 h; read-out: CD4TC IL2 IC50. Put shortly: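 Human CD4+ effector memory T cells from healthy-donor buffy coats were stimulated with anti-CD3/CD28 Dynabeads and exposed to 10 semi-log compound doses (0.1% DMSO) for 24 h at 37 °C. Supernatant IL-2 was measured by HTRF, and IC50 came from a 4-parameter logistic fit to maximal IL-2. Viability was checked by flow cytometry.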

Recombinant human MALT-1 (amino acids 340-824), sequence (Q9UDY8 340-824): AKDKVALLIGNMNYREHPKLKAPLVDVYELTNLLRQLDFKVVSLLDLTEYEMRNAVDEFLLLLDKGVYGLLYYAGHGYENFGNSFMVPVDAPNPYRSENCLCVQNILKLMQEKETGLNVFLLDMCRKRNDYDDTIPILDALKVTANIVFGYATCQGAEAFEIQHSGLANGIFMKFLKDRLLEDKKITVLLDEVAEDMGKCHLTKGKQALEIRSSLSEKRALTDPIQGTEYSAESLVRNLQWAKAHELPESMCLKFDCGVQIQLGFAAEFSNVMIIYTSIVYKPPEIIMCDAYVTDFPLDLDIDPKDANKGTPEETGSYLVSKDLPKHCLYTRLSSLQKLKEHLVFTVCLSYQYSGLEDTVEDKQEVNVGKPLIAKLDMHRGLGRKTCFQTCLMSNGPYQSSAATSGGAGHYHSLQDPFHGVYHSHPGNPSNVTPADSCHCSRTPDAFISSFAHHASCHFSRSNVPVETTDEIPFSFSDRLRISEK

As to `COc1ccc2ncc(Nc3ccc([C@@H](N(C)C(=O)[C@H]4CC[S@](=N)(=O)CC4)C(F)(F)F)cc3)c([C@H](C)OC)c2n1` (relative stereo) [CPD0077187, (1 rel-s,4rel-s)-1-imino-N-methyl-1-oxo-N-[(1R)-2,2,2-trifluoro-1-[4-({6-methoxy-4-[(1 rel-S)-1-methoxyethyl]-1,5-naphthyridin-3-yl}amino)phenyl]ethyl]-1λ^6-thiane-4-carboxamide], the half-inhibitory concentration (IC50) came out at 117 nM in assay [1] and 209 nM in assay [2].

Consider `CN(C(=O)[C@H]1C[C@@H]([S@+](C)(=N)[O-])C1)[C@@H](c1ccc(N2CCCc3c2cnc2cc(Cl)nn32)cc1)C(F)(F)F` [CPD0073224, (1S,3s)-N-[(1S)-1-(4-{4-chloro-2,3,7,10-tetraazatricyclo[7.4.0.0^2,6]trideca-1(9),3,5,7-tetraen-10-yl}phenyl)-2,2,2-trifluoroethyl]-3-[(S)-imino(methyl)oxo-λ^6-sulfanyl]-N-methylcyclobutane-1-carboxamide], for which the IC50 in assay [1] came to 56 nM; in assay [2], 181 nM.

In the case of `CN(C(=O)CN1CCNCC1)[C@@H](c1ccc(N2CCCc3c2cnc2cc(Cl)nn32)cc1)C(F)(F)F` [CPD0021745, N-[(1S)-1-(4-{4-chloro-2,3,7,10-tetraazatricyclo[7.4.0.0^2,6]trideca-1(9),3,5,7-tetraen-10-yl}phenyl)-2,2,2-trifluoroethyl]-N-methyl-2-(piperazin-1-yl)acetamide], the half-maximal inhibitory concentration (IC50) in assay [1] came to 368 nM; in assay [2] it was 748 nM.

In the case of `Cc1ncsc1C(=O)N(C)[C@@H](c1ccc(N2CCCc3c2cnc2cc(Cl)nn32)cc1)C(F)(F)F` [CPD0019351, N-[(1S)-1-(4-{4-chloro-2,3,7,10-tetraazatricyclo[7.4.0.0^2,6]trideca-1(9),3,5,7-tetraen-10-yl}phenyl)-2,2,2-trifluoroethyl]-N,4-dimethyl-1,3-thiazole-5-carboxamide], the IC50 in assay [1] is 278 nM; in assay [2], 152 nM.

Take `CC1CCN(c2ccc([C@H](N(C)C(=O)[C@H]3CC[S@](=N)(=O)CC3)C(F)(F)F)cc2)c2cnc3cc(Cl)nn3c21` (stereo partly drawn) [CPD0072813]: the IC50 is 27 nM in assay [1] and 61 nM in assay [2].

`CN(C(=O)C1CCCS(=O)(=O)C1)[C@@H](c1ccc(N2CCCc3c2cnc2cc(Cl)nn32)cc1)C(F)(F)F` (stereo partly drawn) [CPD0021571, N-[(1S)-1-(4-{4-chloro-2,3,7,10-tetraazatricyclo[7.4.0.0^2,6]trideca-1(9),3,5,7-tetraen-10-yl}phenyl)-2,2,2-trifluoroethyl]-N-methyl-1,1-dioxo-1λ^6-thiane-3-carboxamide]: the figures for the IC50 in assay [1] and in assay [2] were 247 nM and 332 nM, respectively.

As for `CN(C(=O)[C@H]1CC[S@@](=N)(=O)CC1)[C@@H](c1ccc(N2CCC3(CC3)c3c2cnc2cc(F)nn32)cc1)C(F)(F)F` (relative stereo) [CPD0072852, (1rel-s,4rel-s)-1-imino-N-methyl-1-oxo-N-[(1S)-2,2,2-trifluoro-1-(4-{4′-fluoro-2′,3′,7′,10′-tetraazaspiro[cyclopropane-1,13′-tricyclo[7.4.0.0^2,6]tridecane]-1′(9′),3′,5′,7′-tetraen-10′-yl}phenyl)ethyl]-1λ^6-thiane-4-carboxamide], the IC50 was determined as 28 nM in assay [1] and 65 nM in assay [2].

Consider `CN(C(=O)[C@H]1CC[S@](=N)(=O)CC1)[C@@H](c1ccc(N2CCC(C)(C)c3c2cnc2cc(F)nn32)cc1)C(F)(F)F` (relative stereo) [CPD0072783, (1rel-r,4rel-r)-1-imino-N-methyl-1-oxo-N-[(1S)-2,2,2-trifluoro-1-(4-{4′-fluoro-2′,3′,7′,10′-tetraazaspiro[cyclopropane-1,13′-tricyclo[7.4.0.0^2,6]tridecane]-1′(9′),3′,5′,7′-tetraen-10′-yl}phenyl)ethyl]-1λ^6-thiane-4-carboxamide], for which the concentration for half-maximal inhibition (IC50) in assay [1] amounted to 63 nM; in assay [2], 114 nM.

`COC[C@]1(C)CCN(c2ccc([C@H](N(C)C(=O)[C@H]3CC[S@](=N)(=O)CC3)C(F)(F)F)cc2)c2cnc3cc(Cl)nn3c21` (relative stereo) [CPD0073132, (1rel-r,4rel-r)-N-[(1S)-1-[4-[(13rel-R)-4-chloro-13-(methoxymethyl)-13-methyl-2,3,7,10-tetrazatricyclo[7.4.0.0^2,6]trideca-1(9),3,5,7-tetraen-10-yl]phenyl]-2,2,2-trifluoro-ethyl]-1-imino-N-methyl-1-oxo-1λ^6-thiane-4-carboxamide]: the results for the IC50 in assay [1] and in assay [2] were 101 nM and 150 nM, respectively.

As for `CN(C(=O)[C@H]1CNC(=O)C1)[C@@H](c1ccc(N2CCCc3c2cnc2cc(Cl)nn32)cc1)C(F)(F)F` (stereo in doubt) [CPD0073564, (3rel-R)—N-[(1S)-1-(4-{4-chloro-2,3,7,10-tetraazatricyclo[7.4.0.0^2,6]trideca-1(9),3,5,7-tetraen-10-v}phenyl)-2,2,2-trifluoroethyl]-N-methyl-5-oxopyrrolidine-3-carboxamide], the figures for the IC50 in assay [1] and in assay [2] were 53 nM and 250 nM, respectively.

With `CN(C(=O)C1CCCCO1)[C@@H](c1ccc(N2CCCc3c2cnc2cc(Cl)nn32)cc1)C(F)(F)F` (stereo partly drawn) [CPD0021569, N-[(1S)-1-(4-{4-chloro-2,3,7,10-tetraazatricyclo[7.4.0.0^2,6]trideca-1(9),3,5,7-tetraen-10-yl}phenyl)-2,2,2-trifluoroethyl]-N-methyloxane-2-carboxamide], the IC50 in assay [1] came out at 211 nM; in assay [2], 325 nM.

Consider `COC[C@]1(C)CCN(c2ccc([C@H](N(C)C(=O)[C@H]3CC[S@+]([O-])CC3)C(F)(F)F)cc2)c2cnc3cc(Cl)nn3c21` (relative stereo) [CPD0073136, (1rel-r,4rel-r)-N-[(1S)-1-[4-[(13rel-R)-4-chloro-13-(methoxymethyl)-13-methyl-2,3,7,10-tetrazatricyclo[7.4.0.0^2,6]trideca-1(9),3,5,7-tetraen-10-yl]phenyl]-2,2,2-trifluoro-ethyl]-N-methyl-1-oxo-1λ^4-thiane-4-carboxamide], for which the half-maximal inhibitory concentration (IC50) stood at 138 nM in assay [1] and 63 nM in assay [2].

Turning to `COc1ccc2ncc(Nc3ccc([C@H](N(C)C(=O)[C@H]4CC[S@](=N)(=O)CC4)C(F)(F)F)cc3)c([C@@H](C)OC)c2n1` [CPD0075563], the IC50 was found to be 102 nM in assay [1] and 257 nM in assay [2].

`CC(=O)N1CC[C@H](C(=O)N(C)[C@@H](c2ccc(N3CCCc4c3cnc3cc(Cl)nn43)cc2)C(F)(F)F)C1` (relative stereo) [CPD0073189, (3rel-S)-1-acetyl-N-[(1S)-1-(4-{4-chloro-2,3,7,10-tetraazatricyclo[7.4.0.0^2,6]trideca-1(9),3,5,7-tetraen-10-yl}phenyl)-2,2,2-trifluoroethyl]-N-methylpyrrolidine-3-carboxamide]: the IC50 is 76 nM in assay [1] and 160 nM in assay [2].

Consider `CN(C(=O)[C@H]1CC[S@@](=N)(=O)CC1)[C@@H](c1ccc(N2CCCc3c2cnc2cc(Cl)nn32)cc1)C(F)(F)F` (relative stereo) [CPD0072528, (1rel-s,4rel-S)-N-[(1S)-1-(4-{4-chloro-2,3,7,10-tetraazatricyclo[7.4.0.0^2,6]trideca-1(9),3,5,7-tetraen-10-yl}phenyl)-2,2,2-trifluoroethyl]-1-imino-N-methyl-1-oxo-1λ^6-thiane-4-carboxamide], for which the IC50 was determined as 32 nM in assay [1] and 108 nM in assay [2].
